Patent US20170247366A1, “SUBSTITUTED 4-ALKOXYPICOLINAMIDE ANALOGS AS MGLUR5 NEGATIVE ALLOSTERIC MODULATORS AND METHODS OF MAKING AND USING THE SAME” (VANDERBILT UNIVERSITY, priority 2014, published 2017)

What was measured:
[1] = target: T1, rat mGluR5 (Rattus norvegicus, UniProt P31424); test: mGluR5 calcium flux assay in HEK 293A cells, negative allosteric modulation of glutamate EC80 response; assay type: cell-based; conditions: for IC50: HEK cells transfected with rat mGluR5, glutamate EC80, ± is standard error of at least three experiments; for NAM designation / % Glu Max (partial NAM, plateau of CRC) / % Glu Max at single concentration: rat mGluR5; for NAM designation: CRC plateaus above 10% Glu Max; for % Glu Max (partial NAM, plateau of CRC): response in presence of compound as percentage of maximal glutamate response, CRC plateaus above 10%; for % Glu Max at single concentration: average Glu Max at 30 μM, CRC does not hit a plateau
T1 construct: expressed in transfected cells
Method: HEK 293A cells stably expressing either rat or human mGluR5 were plated in black-walled, clear-bottomed, poly-D-lysine coated 384-well plates in 20 μL of assay medium (DMEM containing 10% dialyzed FBS, 20 mM HEPES, 100 units/mL penicillin/streptomycin plus 250 ng/mL Fungizone, and 1 mM sodium pyruvate) at a density of 20K cells/well. The cells were grown overnight at 37° C. in the presence of 5% CO2. The next day, medium was removed and the cells incubated with 20 μL of 2.3 µM Fluo-4, AM prepared as a 2.3 mM stock in DMSO and mixed in a 1:1 ratio with 10% (w/v) pluronic acid F-127 and diluted in assay buffer (Hank's balanced salt solution, 20 mM HEPES, and 2.5 mM probenecid) for 45 minutes at 37° C. Dye was removed, 20 μL of assay buffer was added, and the plate was incubated for 5 minutes at room temperature.
Ca^2+ flux was measured using the Functional Drug Screening System (FDSS7000, Hamamatsu, Japan). After establishment of a fluorescence baseline for about 3 seconds, the compounds of the present invention were added to the cells, and the response in cells was measured. 2.3 minutes later an EC20 concentration of the mGluR5 receptor agonist glutamate was added to the cells, and the response of the cells was measured for 1.9 minutes; an EC80 concentration of agonist was added and readings taken for an additional 1.7 minutes. All test compounds were dissolved and diluted to a concentration of 10 mM in 100% DMSO. Compounds were then serially diluted 1:3 in DMSO into 10 point concentration response curves, transferred to daughter plates, and further diluted into assay buffer to a 2× stock. Calcium fluorescence measures were recorded as fold over basal fluorescence; raw data was then normalized to the maximal response to glutamate. Antagonism of the agonist response of the mGluR5 receptor in the present invention was observed as a decrease in response to nearly maximal concentrations of glutamate in the presence of compound compared to the response to glutamate in the absence of compound.
The raw data file containing all time points was used as the data source in the analysis template. This was saved by the FDSS as a tab-delimited text file. Data were normalized using a static ratio function (F/F0) for each measurement of the total 360 values per well divided by each well's initial value. Data were then reduced to peak amplitudes (Max−Initial Min) using a time range that starts approximately 3 seconds prior to the glutamate EC20/EC80 addition and continues for approximately 90-120 seconds. This is sufficient time to capture the peak amplitude of the cellular calcium response. Individual amplitudes were expressed as % EMax by multiplying each amplitude by 100 and then dividing the product by the mean of the amplitudes derived from the glutamate ECMax-treated wells. IC50 values for test compounds were generated by fitting the normalized values versus the log of the test compound concentration (in mol/L) using a 4 parameter logistic equation where none of the parameters were fixed. Each of the three values collected at each concentration of test compound were weighted evenly.
For NAMs with a CRC that plateaus above 10% Glu Max, the IC50 values are reported, the compound is designated a “partial NAM” and the % Glu Max is reported. […] Compounds without measurable activity are designated as “>30,000 nM” since the top concentration of compound tested in the assay is 30 µM. Exemplary data are provided in Tables 1 and 2 below.
Table 1 below lists specific compounds, experimentally determined molecular mass, and mGluR5 activity determined in a cell-based assay. The mGluR5 activity was determined using the metabotropic glutamate receptor activity assays in human embryonic kidney cells as described herein, wherein the human embryonic kidney cells were transfected with rat mGluR5. The mGluR5 activity data for some compounds are shown as the average of at least three experiments with the standard error in these cases. […]

[2] = target: mGluR4 (Homo sapiens, UniProt Q14833); conditions: cited from earlier work
[3] = system: marble burying in mice; conditions: cited from earlier work
[4] = system: N-methyl-D-aspartate (NMDA) receptor; conditions: at higher concentrations; cited from earlier work
[5] = target: T2, cytochrome P450 1A2 (Homo sapiens, UniProt P05177); conditions: cited from earlier work
T2 sequence (P05177 1-516): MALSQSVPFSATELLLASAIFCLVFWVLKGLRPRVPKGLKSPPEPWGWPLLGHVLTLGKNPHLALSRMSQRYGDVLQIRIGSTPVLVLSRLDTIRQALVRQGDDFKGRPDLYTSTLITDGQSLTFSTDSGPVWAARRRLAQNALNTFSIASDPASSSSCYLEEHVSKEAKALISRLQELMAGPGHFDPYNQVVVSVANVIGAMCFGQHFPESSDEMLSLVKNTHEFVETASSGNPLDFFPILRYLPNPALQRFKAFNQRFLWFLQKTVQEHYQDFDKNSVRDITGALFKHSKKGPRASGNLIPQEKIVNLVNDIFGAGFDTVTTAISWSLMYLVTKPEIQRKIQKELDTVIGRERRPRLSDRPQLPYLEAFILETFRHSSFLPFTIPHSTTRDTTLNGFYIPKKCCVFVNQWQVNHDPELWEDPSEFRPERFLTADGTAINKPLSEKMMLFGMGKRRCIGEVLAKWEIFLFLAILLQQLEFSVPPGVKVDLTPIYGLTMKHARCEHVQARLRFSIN

[6] = intravenous administration to rhesus monkeys; cited from earlier work

T1 sequence (P31424 21-1203): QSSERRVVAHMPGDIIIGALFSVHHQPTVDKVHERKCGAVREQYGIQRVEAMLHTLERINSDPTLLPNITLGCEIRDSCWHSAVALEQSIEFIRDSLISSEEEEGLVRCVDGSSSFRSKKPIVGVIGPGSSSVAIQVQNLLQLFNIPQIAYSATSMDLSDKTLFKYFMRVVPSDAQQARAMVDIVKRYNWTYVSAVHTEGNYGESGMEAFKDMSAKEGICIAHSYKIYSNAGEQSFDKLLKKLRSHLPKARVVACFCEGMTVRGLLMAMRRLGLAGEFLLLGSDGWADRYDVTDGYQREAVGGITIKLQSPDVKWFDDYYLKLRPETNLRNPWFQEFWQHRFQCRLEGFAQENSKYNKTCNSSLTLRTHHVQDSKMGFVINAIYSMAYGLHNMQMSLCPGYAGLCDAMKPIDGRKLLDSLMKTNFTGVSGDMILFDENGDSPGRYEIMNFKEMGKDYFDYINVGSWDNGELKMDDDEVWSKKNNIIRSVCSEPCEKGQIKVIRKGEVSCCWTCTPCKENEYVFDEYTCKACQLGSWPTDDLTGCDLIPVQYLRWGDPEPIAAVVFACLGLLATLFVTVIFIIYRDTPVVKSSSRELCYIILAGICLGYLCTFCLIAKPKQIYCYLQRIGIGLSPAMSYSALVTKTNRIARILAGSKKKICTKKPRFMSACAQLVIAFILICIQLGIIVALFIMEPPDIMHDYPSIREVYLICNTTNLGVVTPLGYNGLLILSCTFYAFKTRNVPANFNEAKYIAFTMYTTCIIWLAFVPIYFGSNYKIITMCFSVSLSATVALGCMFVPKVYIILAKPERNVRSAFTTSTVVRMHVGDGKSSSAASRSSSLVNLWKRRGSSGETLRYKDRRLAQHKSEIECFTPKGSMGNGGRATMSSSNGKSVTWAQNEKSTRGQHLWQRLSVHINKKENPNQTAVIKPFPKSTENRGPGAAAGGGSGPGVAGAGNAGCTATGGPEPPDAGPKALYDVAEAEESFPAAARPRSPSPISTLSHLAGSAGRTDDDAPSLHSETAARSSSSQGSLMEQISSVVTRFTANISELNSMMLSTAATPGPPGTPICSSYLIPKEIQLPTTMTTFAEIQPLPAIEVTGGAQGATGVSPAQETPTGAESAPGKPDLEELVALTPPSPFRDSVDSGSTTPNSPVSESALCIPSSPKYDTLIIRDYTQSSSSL
Sequence of mGluR4 (Q14833 33-912): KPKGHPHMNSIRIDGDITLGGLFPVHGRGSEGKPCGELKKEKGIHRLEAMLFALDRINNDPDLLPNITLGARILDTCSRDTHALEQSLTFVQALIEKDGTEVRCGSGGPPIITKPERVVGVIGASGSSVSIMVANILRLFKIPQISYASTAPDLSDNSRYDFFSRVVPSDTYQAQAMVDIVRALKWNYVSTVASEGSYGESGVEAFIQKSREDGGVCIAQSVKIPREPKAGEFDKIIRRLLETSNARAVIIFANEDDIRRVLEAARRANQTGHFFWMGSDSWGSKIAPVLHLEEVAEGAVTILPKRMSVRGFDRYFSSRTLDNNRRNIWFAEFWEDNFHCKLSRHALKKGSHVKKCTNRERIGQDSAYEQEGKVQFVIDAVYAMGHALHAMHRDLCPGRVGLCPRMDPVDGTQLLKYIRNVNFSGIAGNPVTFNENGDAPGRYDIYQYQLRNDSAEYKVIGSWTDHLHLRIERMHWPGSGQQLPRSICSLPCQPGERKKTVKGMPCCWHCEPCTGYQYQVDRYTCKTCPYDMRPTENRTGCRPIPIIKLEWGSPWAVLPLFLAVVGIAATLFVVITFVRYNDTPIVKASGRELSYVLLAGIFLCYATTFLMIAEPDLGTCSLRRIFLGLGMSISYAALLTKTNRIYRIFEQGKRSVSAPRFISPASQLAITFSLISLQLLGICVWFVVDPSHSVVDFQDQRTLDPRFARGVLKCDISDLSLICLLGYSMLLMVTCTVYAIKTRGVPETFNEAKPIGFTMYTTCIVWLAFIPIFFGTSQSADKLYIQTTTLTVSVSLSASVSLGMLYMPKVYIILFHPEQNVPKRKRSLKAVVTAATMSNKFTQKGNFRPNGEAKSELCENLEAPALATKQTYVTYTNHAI

SMILES	IC50 [1] [nM]	also measured
Cc1cc(OC2CCC2)cc(C(=O)Nc2nc(C)cs2)n1	59 ± 7	
Cc1cc(O[C@@H]2CCOC2)cc(C(=O)Nc2ccccn2)n1	23	
Cc1cc(O[C@@H]2CCOC2)cc(C(=O)Nc2nc(C)cs2)n1	42 ± 9	
Cc1cc(O[C@H]2CCOC2)cc(C(=O)Nc2ccccn2)n1	194	
Cc1cc(O[C@H]2CCOC2)cc(C(=O)Nc2nc(C)cs2)n1	133 ± 14	
Cc1cc(OC2CCCOC2)cc(C(=O)Nc2ccccn2)n1 (centres unmarked)	224	
Cc1cc(OC2CCCOC2)cc(C(=O)Nc2nc(C)cs2)n1 (centres unmarked)	140	
Cc1cc(O[C@H]2CCCOC2)cc(C(=O)Nc2ccccn2)n1	75	
Cc1cc(OC2CCCCC2)cc(C(=O)Nc2ccccn2)n1	1420	
Cc1cc(OC2CCCCC2)cc(C(=O)Nc2nc(C)cs2)n1	2100	
Cc1cc(O[C@@H]2CCCOC2)cc(C(=O)Nc2ccccn2)n1	101	
Cc1cc(O[C@@H]2CCCOC2)cc(C(=O)Nc2nc(C)cs2)n1	70 ± 11	
Cc1cc(O[C@H]2CCCOC2)cc(C(=O)Nc2nc(C)cs2)n1	91 ± 3	
Cc1cc(OC2CCOCC2)cc(C(=O)Nc2ccccn2)n1	1560	
Cc1cc(OCC2CCO2)cc(C(=O)Nc2ccccn2)n1 (centres unmarked)	646	
Cc1cc(OCC2CCO2)cc(C(=O)Nc2nc(C)cs2)n1 (centres unmarked)	399	
Cc1cc(OCC2CCCO2)cc(C(=O)Nc2ccccn2)n1 (centres unmarked)	725	

SMILES	IC50 [1] [nM]	also measured
Cc1cc(OCC2CCCO2)cc(C(=O)Nc2nc(C)cs2)n1 (centres unmarked)	273	
Cc1cc(OC2CCOCC2)cc(C(=O)Nc2nc(C)cs2)n1	446	
Cc1cc(OCC2COC2)cc(C(=O)Nc2ccccn2)n1	392	
Cc1cc(OCC2COC2)cc(C(=O)Nc2nc(C)cs2)n1	143 ± 32	
Cc1cc(OCC2CCOC2)cc(C(=O)Nc2ccccn2)n1 (centres unmarked)	210	
Cc1cc(OCC2CCOC2)cc(C(=O)Nc2nc(C)cs2)n1 (centres unmarked)	200	
Cc1cc(OC[C@@H]2CCOC2)cc(C(=O)Nc2ccccn2)n1	166	
Cc1cc(OC[C@@H]2CCOC2)cc(C(=O)Nc2nc(C)cs2)n1	151 ± 38	
COCCOc1cc(C)nc(C(=O)Nc2ccccn2)c1	120	
COCCOc1cc(C)nc(C(=O)Nc2nc(C)cs2)c1	82 ± 12	
CCCS(=O)(=O)N1CC(Oc2cc(C)nc(C(=O)Nc3nc(C)cs3)c2)C1	789	
Cc1cc(OC2CN(S(=O)(=O)CC(C)C)C2)cc(C(=O)Nc2nc(C)cs2)n1	> 10000	% Glu Max at single concentration [1]: 59%
Cc1cc(OC2CN(S(=O)(=O)C(C)C)C2)cc(C(=O)Nc2nc(C)cs2)n1	3620	
Cc1cccc(C#Cc2ccccc2)n1 [MPEP, 2-methyl-6-(phenylethynyl) pyridine]		Activity at mGluR4 [2]: positive allosteric modulator; Efficacy in marble burying model [3]: effective; NMDA receptor activity inhibition [4]: directly inhibit
Cc1nc(C#Cc2cccnc2)cs1 [MTEP, 3-[(2-methyl-1,3-thiazol-4-yl)ethynyl]pyridine]		Inhibition of cytochrome P450 1A2 [5]: potent inhibitor; Clearance [6]: efficiently cleared
CN1CC(=O)N=C1NC(=O)Nc1cccc(Cl)c1 [fenobam, 1-(3-chlorophenyl)-3-(1-methyl-4-oxo-4,5-dihydro-1H-imidazol-2-yl)urea]		Efficacy in marble burying model [3]: effective

The next lines start with results.

IC50 [1] [nM]	SMILES	also measured
43	Cc1cc(OC2CCC2)cc(C(=O)Nc2ccccn2)n1	
212 ± 8	Cc1cc(OC2COC2)cc(C(=O)Nc2ccc(F)cn2)n1	
685 ± 51	Cc1cc(O[C@H]2CCOC2)cc(C(=O)Nc2ccc(F)cn2)n1	
3350	Cc1cc(OC2CCCCC2)cc(C(=O)Nc2ccc(F)cn2)n1	
353 ± 83	Cc1cc(O[C@@H]2CCCOC2)cc(C(=O)Nc2ccc(F)cn2)n1	
497	Cc1cc(OC2CCCOC2)cc(C(=O)Nc2ccc(F)cn2)n1 (centres unmarked)	
264 ± 47	Cc1cc(O[C@H]2CCCOC2)cc(C(=O)Nc2ccc(F)cn2)n1	
4300	Cc1cc(OCC2COC2)cc(C(=O)Nc2ccc(F)cn2)n1	
2480	Cc1cc(OCC2CCO2)cc(C(=O)Nc2ccc(F)cn2)n1 (centres unmarked)	
2330	Cc1cc(OCC2CCCO2)cc(C(=O)Nc2ccc(F)cn2)n1 (centres unmarked)	
701	Cc1cc(OCC2CCOC2)cc(C(=O)Nc2ccc(F)cn2)n1 (centres unmarked)	
4890	Cc1cc(OC[C@H]2CCOC2)cc(C(=O)Nc2ccc(F)cn2)n1	
201	Cc1cc(OC2COC2)cc(C(=O)Nc2cccc(F)n2)n1	
4100	Cc1cc(OC2CN(C(=O)OC(C)C)C2)cc(C(=O)Nc2ccc(F)cn2)n1	NAM designation [1]: Partial NAM; % Glu Max (partial NAM, plateau of CRC) [1]: 42%
11200	CCCCOC(=O)N1CC(Oc2cc(C)nc(C(=O)Nc3ccc(F)cn3)c2)C1	
504	Cc1cc(OC2CN(S(C)(=O)=O)C2)cc(C(=O)Nc2nc(C)cs2)n1	
686	COC(=O)N1CC(Oc2cc(C)nc(C(=O)Nc3nc(C)cs3)c2)C1	
2510	Cc1cc(OC2CN(C(=O)OC(C)C)C2)cc(C(=O)Nc2nc(C)cs2)n1	
3340	CCOC(=O)N1CC(Oc2cc(C)nc(C(=O)Nc3ccc(F)cn3)c2)C1	
> 10000	CCCOC(=O)N1CC(Oc2cc(C)nc(C(=O)Nc3ccc(F)cn3)c2)C1	% Glu Max at single concentration [1]: 37%
> 30000	Cc1cc(OC2CN(C(=O)OCC(C)C)C2)cc(C(=O)Nc2ccc(F)cn2)n1	
1270	CCS(=O)(=O)N1CC(Oc2cc(C)nc(C(=O)Nc3nc(C)cs3)c2)C1	
> 10000	CCCS(=O)(=O)N1CC(Oc2cc(C)nc(C(=O)Nc3ccc(F)cn3)c2)C1	% Glu Max at single concentration [1]: 53%
> 30000	Cc1cc(OC2CN(S(=O)(=O)CC(C)C)C2)cc(C(=O)Nc2ccc(F)cn2)n1	
> 10000	Cc1cc(OC2CN(C(=O)N(C)C)C2)cc(C(=O)Nc2ccc(F)cn2)n1	% Glu Max at single concentration [1]: 69%
> 10000	CCS(=O)(=O)N1CC(Oc2cc(C)nc(C(=O)Nc3ccc(F)cn3)c2)C1	% Glu Max at single concentration [1]: 62%
3980	Cc1cc(OC2CN(S(=O)(=O)C(C)C)C2)cc(C(=O)Nc2ccc(F)cn2)n1	NAM designation [1]: Partial NAM; % Glu Max (partial NAM, plateau of CRC) [1]: 58%
> 10000	Cc1cc(OC2CN(C(=O)N(C)C)C2)cc(C(=O)Nc2nc(C)cs2)n1	% Glu Max at single concentration [1]: 31%
